The values that follow come from the SangsterLogP compilation.

Series [1] in a line: method code SF-HPLC, from DOI: 10.1124/dmd.30.12.1497, PMID: 12433825. As to conditions: pH 7.4.
The nature of series [2]: method code SF-AS, from DOI: 10.1021/jf950378u.
Series [3] can be described thus: method code SF-GLC, from DOI: 10.1007/s002679900238, PMID: 10486045.
A short description of series [4]: method code SF-AS, from DOI: 10.1016/j.bmc.2011.10.017, PMID: 22094277. As to conditions: pH 7.4.
Series [5] can be described thus: method code SF-HPLC, from DOI: 10.1002/hlca.19880710534. The conditions noted are these: pH 7.4.
Series [6] is described as follows: method code SF-HPLC, from DOI: 10.1021/jm00109a018, PMID: 2033591. The conditions noted are these: pH 7.0.
The nature of series [7]: method code SF-AS, from DOI: 10.1211/0022357001773940, PMID: 10757413. As to conditions: pH 7.4.
Assay in series [8]: not given
The source holds these as a separate data set.

Series [9] in a line: method code SF, from PMID: 3261785.
Series [10] in a line: method code SF-AS, from Brown, J.; Yu, N.; Cory, M.; Bicknell, R.; Taylor, D. (1978). In vivo evaluation of the radiosensitizing and cytotoxic properties of newly synthesized electron-affinic drugs. 3, 206-211.
Series [11] can be described thus: method code SF, from DOI: 10.1016/0304-4165(80)90351-7, PMID: 6243999. As to conditions: pH 7.4.
Assay in series [12]: not given
The source holds these as a separate data set.

The nature of series [13]: method code SF-AS, from PMID: 7646571. As to conditions: pH 7.0.
The nature of series [14]: method code SF-AS, from DOI: 10.1021/jm00212a022, PMID: 836502.
Series [15] in a line: method code SF-AS, from DOI: 10.1016/0006-2952(80)90068-4, PMID: 6775639.
Assay in series [16]: not given
The source holds these as a separate data set.

Series [17] in a line: method code …, from Kristl, A.; Vesnaver, G.; Mrhar, A.; Kozjek, F. (1993). Evaluation of partitioning and solubility data for some guanine derivatives in terms of mutual miscibility of octanol and water phase. …. The conditions noted are these: pH 5.2.
Assay in series [18]: not given
The source holds these as a separate data set.

Series [19] in a line: method code SF-AS, from DOI: 10.1021/jm00128a017, PMID: 2754702. As to conditions: pH 7.4.
Assay in series [20]: not given
The source holds these as a separate data set.

The nature of series [21]: method code SF-GLC, from DOI: 10.1016/0045-6535(95)00311-u.
Series [22] is described as follows: method code SF, from PMID: 23342302. As to conditions: pH 7.4.
Series [23] is described as follows: method code SF, from PMID: 7412765. As to conditions: pH 7.0.
The nature of series [24]: method code SF-RC, from DOI: 10.1021/jm00360a016, PMID: 6854590.
Assay in series [25]: not given
This is another data set of the same source.

Assay in series [26]: not given
This is another data set of the same source.

Assay in series [27]: not given
The source holds these as a separate data set.

Assay in series [28]: not given
This is another data set of the same source.

Series [29] can be described thus: method code SF-AS, from DOI: 10.1021/jf60217a021, PMID: 659709.
Series [30] is described as follows: method code SF-RC, from DOI: 10.1016/j.nucmedbio.2014.03.023, PMID: 24768149. As to conditions: pH 7.4.
A short description of series [31]: method code SF-HPLC, from DOI: 10.1002/jps.22717, PMID: 21837649. The conditions noted are these: pH 7.4.
Assay in series [32]: not given
The source holds these as a separate data set.

Series [33] is described as follows: method code SF-AS, from PMID: 3774812. The conditions noted are these: pH 4.0.
Series [34] in a line: method code SF-RC, from DOI: 10.1016/j.nucmedbio.2008.01.001, PMID: 18355684. As to conditions: pH 7.4.
Assay in series [35]: not given
The source holds these as a separate data set.

Assay in series [36]: not given
The source holds these as a separate data set.

Series [37] is described as follows: method code SF-AS, from Korenman, Y. (1973). Extraction of p-halophenols. Zh. Prikl. Khim., 46(11)2754-2755. The conditions noted are these: pH 7.4.
Series [38] is described as follows: from Tehrany, E.A.; Desobry, S. (2005). Comparison between the different calculation methods of partition coefficient of aroma compounds with a difference chemical classes in octanol/water system. ….
Series [39] is described as follows: method code SF-AS, from DOI: 10.2307/3575639, PMID: 7313077. The conditions noted are these: pH 7.4.
A short description of series [40]: method code SF-HPLC, from DOI: 10.3109/03639045.2012.690417, PMID: 22670797.
A short description of series [41]: method code SF, from PMID: 7429676. The conditions noted are these: pH 7.4.
Series [42] is described as follows: method code SF-AS, from DOI: 10.1021/jf60167a006.
Assay in series [43]: not given
The source holds these as a separate data set.

Series [44] is described as follows: method code SF, from DOI: 10.1021/jf60167a006.
Assay in series [45]: not given
The source holds these as a separate data set.

Series [46] can be described thus: method code SF, from DOI: 10.1248/cpb.18.708. As to conditions: pH 6.4.
Series [47] can be described thus: method code SF-AS, from DOI: 10.1016/s0090-9556(25)07961-9, PMID: 6130927.
Assay in series [48]: not given
The source holds these as a separate data set.

By logP is commonly meant a log measure of how a compound divides between an organic and an aqueous phase. Consider `CCC1(CC(C)C)C(=O)NC(=O)NC1=O`, for which the logP was found to be 1.69.

In series [1], `CN1C(=O)CC(c2ccccc2)C1=O` (centres undefined) showed a logD of 0.68.

The compound `COC(=O)/C=C/c1ccc(O)c(OC)c1` showed a logP in series [2] of 1.2.

The compound `C=C(C)C1CCC(C)(O)C1C` (centres undefined) displayed a logP in [3] of 2.87.

As to `CCCOC(=O)[C@@]1(C)[C@H](CO)CC=[N+]1[O-]`, in series [4], the logD was -0.82.

Compound `C=CCC1(C(=O)NC(N)=O)CC(C)OC1=O` (centres undefined) showed a logD in series [5] of 0.36.

Regarding `Cc1nc2c(N)ncnc2n1[C@@H]1O[C@H](CO)C[C@@H]1F`, the logD in [6] was 0.1.

`Cc1c(O)c(=O)ccn1CCc1c[nH]cn1`: in series [7], the logD is -0.05.

In [8], `CN(C)/N=N/c1ccc(CC(=O)O)cc1` registered a logP of 1.38.

With `Cc1c(I)c(=O)n(-c2ccccc2)n1C`, in series [9], the logP came out at 1.27.

As to `CC(=O)OCC(Cn1ccnc1[N+](=O)[O-])OC(C)=O` (centres undefined), the logP in series [10] is -0.05.

Consider `CC(=O)NC1CC(C)(C)N(O)C(C)(C)C1`, for which, in series [11], the logD is 0.52.

`NC12CC3CC(CC(C3)C1)C2` returned a logP in [12] of 2.54.

Regarding `Cn1c(=O)[nH]c2ncn(CC(C)(C)C)c2c1=O`, in series [13], the logD stood at 0.6.

`CCCOc1cc(N)ccc1C(=O)O`: the logP in series [14] was 1.53.

For the compound `CC1=CC(=O)c2ccccc2C1=O`, in [15], the logP worked out at 1.88.

Regarding `Cc1[nH]cnc1CSCCNc1cc[nH]c(=O)n1`, in [16], the logP is -0.4.

For `CC(=O)Nc1nc2c(ncn2COCCO)c(=O)[nH]1`, in series [17], the logD was -1.3.

For the compound `c1nnnn1C12CC3CC(CC(C3)C1)C2`, in [18], the logP amounted to 2.95.

With `Nc1nc2c(ncn2C2CC(O)C(CO)O2)c(=O)[nH]1` (centres undefined), the logD in [19] was -1.3.

`CCCCCOc1ccc(O)cc1` yielded a logP in [20] of 3.26.

The compound `CCCCCCCCC(Cl)C(Cl)(Cl)Cl` (centres undefined) registered a logP in series [21] of 5.93.

For the compound `Nc1nc(=O)c2ncn(CCC(CO)CF)c2[nH]1` (centres undefined), the logD in series [22] was -0.87.

`CCCC(C)C1(CC)C(=O)NC(=O)NC1=O` (centres undefined) displayed a logD in series [23] of 1.75.

Take `O=c1ccc2ccc3occc3c2o1`: the logP in [24] is 2.08.

Consider `Cc1noc(NS(=O)(=O)c2ccc(N)cc2)c1C`, for which the logP in [25] is 0.83.

In series [26], `CCC(Oc1ccc(Cl)cc1C)C(=O)O` (centres undefined) had a logP of 3.47.

Regarding `CNC(=O)OCc1nc(SC)n(C)c1COC(=O)NC`, the logP in series [27] was 0.74.

The compound `CCNc1nc(NC(C)(C)C)nc(SC)n1` came in with a logP in series [28] of 3.43.

`COC(=O)N(C)SN(C)C(=O)O/N=C(\SC)C(=O)N(C)C`: the logP in series [29] is -0.07.

With `FCCOC1CCC=CCCC1` (centres undefined), the logD in [30] was 1.68.

`CCN1CCCc2cc(F)ccc21` yielded a logD in series [31] of 2.82.

`CN(C)C(=O)CNCc1ccccc1` displayed a logP in series [32] of 1.11.

With `Cc1c(CC(=O)O)sc2ccc(Cl)cc12`, the logD in series [33] was found to be 3.12.

With `CCCSc1nsnc1C1=CCCN(C)C1`, the logD in [34] came to 2.9.

Regarding `C=C(C)C(=O)OC1CCCCC1`, the logP in [35] came to 2.98.

`CCNc1nc(NC(C)C(C)C)nc(SC)n1` (centres undefined) showed a logP in series [36] of 3.76.

In turn, `C=CCC1(CC(=C)Br)C(=O)NC(=O)N(C)C1=O` (centres undefined) registered a logD in [37] of 1.78.

Consider `CCCCCCCCCC(=O)O`, for which the logP in series [38] is 3.91.

In the case of `CN(C)C(=O)c1cc(N2CC2)c([N+](=O)[O-])cc1[N+](=O)[O-]`, the logD in series [39] is 0.63.

For the compound `CC(C)(C)c1ccc(NC(N)=S)cc1`, the logP in series [40] came out at 2.6.

Consider `CC(O)Cn1cnc2c1c(=O)n(C)c(=O)n2C` (centres undefined), for which the logD in series [41] was -0.77.

Regarding `CCOP(=S)(OCC)Oc1ccccc1`, the lipophilicity (logP) in series [42] amounted to 3.46.

`C1COCCOCCOCCOCCO1`: the lipophilicity (logP) in series [43] was -0.48.

As for `CCOP(=O)(OCC)Oc1ccc(S(C)(=O)=O)cc1`, the logP in [44] came to 0.

For the compound `CC[C@@H]1C(=O)OC[C@@H]1Cc1cncn1C`, the log partition coefficient (logP) in [45] came out at 0.66.

As for `COc1ccc(NS(=O)(=O)c2ccc(N)cc2)nn1`, the logD in series [46] was found to be 0.4.

As for `CCC(N)Cc1ccccc1` (centres undefined), the logP in series [47] stood at 2.28.

With `CCCCc1ccc(C(=O)O)cc1`, in [48], the logP was 3.7.
